Measured values from ChEMBL document CHEMBL1201862, “PubChem BioAssay data set” (2004).
Active and inactive are the calls of the source.

Legend:
[1] = inhibitors of firefly luciferase expression or activity, dose response, H4 neuroglioma cells, luminescence (AID 1990); type: functional, cell-based
[2] = luciferase reporter signal reduction – luminescence, H4-C neuroglioblastoma cells, dose response (AID 2458); type: functional, cell-based;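 also: H4 neuroglioblastoma cells stably carrying a luciferase reporter gene fusion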
[3] = cells; type: functional, cell-based
[4] = inhibitors of SNCA 5'UTR-driven reporter translation, confirmation, H4 neuroglioma cells, luminescence (AID 1988); type: functional, cell-based
[5] = target: T1, Luciferin 4-monooxygenase (Photinus pyralis, UniProt P08659); experiment: firefly luciferase enzyme inhibitors, dose response, biochemical, luminescence (AID 1891)
T1 sequence (P08659 whole entry): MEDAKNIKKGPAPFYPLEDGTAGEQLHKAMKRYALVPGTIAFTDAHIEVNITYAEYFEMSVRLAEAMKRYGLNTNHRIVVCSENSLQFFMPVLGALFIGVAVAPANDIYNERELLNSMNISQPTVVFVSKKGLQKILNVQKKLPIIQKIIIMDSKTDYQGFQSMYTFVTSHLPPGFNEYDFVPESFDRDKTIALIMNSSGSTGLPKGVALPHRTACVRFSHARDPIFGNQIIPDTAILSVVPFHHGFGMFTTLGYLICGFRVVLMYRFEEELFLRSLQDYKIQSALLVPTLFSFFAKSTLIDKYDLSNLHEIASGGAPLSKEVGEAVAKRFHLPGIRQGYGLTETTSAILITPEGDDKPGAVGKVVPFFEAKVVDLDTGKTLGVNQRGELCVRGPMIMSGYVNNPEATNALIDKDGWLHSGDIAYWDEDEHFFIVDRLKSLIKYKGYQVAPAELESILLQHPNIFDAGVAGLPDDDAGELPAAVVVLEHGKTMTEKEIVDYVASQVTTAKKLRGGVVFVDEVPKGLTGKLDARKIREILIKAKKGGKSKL

[6] = Luminescence Cell-Based Dose Confirmation HTS to Identify Inhibitors of Platelet Dense Granule Release. [Related pubchem assays: 1663 (Primary HTS), 1678 (Summary of Project)]; type: functional
[7] = inhibitors of SNCA 5'UTR-driven translation, confirmation, luminescence, H4 neuroglioblastoma cells, dose confirmation (AID 2454); type: functional, cell-based;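 also: H4 neuroglioblastoma cells carrying an alpha-synuclein 5'UTR luciferase reporter; potency for inhibition of the luciferase signal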
[8] = target: Lysosomal acid glucosylceramidase (Homo sapiens, UniProt P04062); experiment: Dose response cell-based high throughput screening assay to identify enhancers of beta-glucosidase activity. [Related pubchem assays: 784 ]; type: functional
Lysosomal acid glucosylceramidase, sequence (P04062 whole entry): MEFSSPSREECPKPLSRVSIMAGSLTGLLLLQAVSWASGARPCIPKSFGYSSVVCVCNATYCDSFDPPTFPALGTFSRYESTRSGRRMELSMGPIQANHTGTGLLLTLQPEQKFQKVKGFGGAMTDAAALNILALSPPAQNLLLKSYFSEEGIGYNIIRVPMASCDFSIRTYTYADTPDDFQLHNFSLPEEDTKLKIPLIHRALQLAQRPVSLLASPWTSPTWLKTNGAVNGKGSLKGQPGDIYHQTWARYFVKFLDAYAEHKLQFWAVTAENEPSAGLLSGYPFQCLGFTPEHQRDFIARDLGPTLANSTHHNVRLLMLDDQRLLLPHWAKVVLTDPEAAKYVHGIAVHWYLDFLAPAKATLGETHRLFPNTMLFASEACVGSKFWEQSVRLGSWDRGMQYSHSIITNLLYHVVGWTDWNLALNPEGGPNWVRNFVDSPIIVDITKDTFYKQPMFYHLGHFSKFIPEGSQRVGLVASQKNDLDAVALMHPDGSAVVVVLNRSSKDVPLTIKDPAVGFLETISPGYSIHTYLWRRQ

[9] = test system: H9c2; experiment: cells; type: functional, cell-based; settings: Rattus norvegicus, H9c2, Myocardium;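 also: confirmatory concentration-response retest of ultra-high-throughput screening hits for modulation of myocardial damage; cell death induced by hydrogen peroxide oxidative stress; compound pretreatment for 60 min then peroxide exposure for 2 h; potency is for protecting the cells against peroxide damage rather than for killing them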
[10] = HEp-2 cell cytotoxicity, dose response, cytotoxicity control for RSV inhibitor project, HTS (AID 2410); type: functional; settings: human respiratory syncytial virus
[11] = target: T2, Heat shock 70 kDa protein 1A (Homo sapiens, UniProt P0DMV8); experiment: Hsp70 inhibitors, biochemical, TR-FRET (AID 786)
T2 sequence (P0DMV8 whole entry): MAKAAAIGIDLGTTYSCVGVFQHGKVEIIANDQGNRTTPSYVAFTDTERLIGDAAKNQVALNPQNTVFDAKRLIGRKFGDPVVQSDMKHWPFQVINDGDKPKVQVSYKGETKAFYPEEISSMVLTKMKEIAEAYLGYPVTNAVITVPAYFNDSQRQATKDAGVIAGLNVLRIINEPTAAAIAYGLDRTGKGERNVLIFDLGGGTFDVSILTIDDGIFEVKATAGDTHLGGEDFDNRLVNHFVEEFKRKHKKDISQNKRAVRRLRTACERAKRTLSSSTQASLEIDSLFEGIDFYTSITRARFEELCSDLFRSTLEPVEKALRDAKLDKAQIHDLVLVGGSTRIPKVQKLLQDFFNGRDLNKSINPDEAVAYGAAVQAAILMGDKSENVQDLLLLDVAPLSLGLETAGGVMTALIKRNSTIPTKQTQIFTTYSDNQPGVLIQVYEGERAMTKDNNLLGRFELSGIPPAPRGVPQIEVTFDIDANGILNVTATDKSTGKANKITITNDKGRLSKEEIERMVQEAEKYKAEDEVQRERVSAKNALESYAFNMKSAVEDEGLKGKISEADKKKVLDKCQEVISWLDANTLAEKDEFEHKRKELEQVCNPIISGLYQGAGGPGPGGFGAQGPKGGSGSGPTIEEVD

[12] = target: T2, Heat shock 70 kDa protein 1A; experiment: Hsp70 inhibitors, probe displacement, primary screen, biochemical, fluorescence polarization (AID 583)
[13] = target: Acyl-homoserine lactone acylase PvdQ (Pseudomonas aeruginosa (strain LESB58), UniProt Q9I194); experiment: P. aeruginosa PvdQ acylase inhibitors, dose response, biochemical, fluorescence, plate reader and imaging, cherry-picks (AID 493231)
Acyl-homoserine lactone acylase PvdQ, sequence (Q9I194 24-193 limits assumed): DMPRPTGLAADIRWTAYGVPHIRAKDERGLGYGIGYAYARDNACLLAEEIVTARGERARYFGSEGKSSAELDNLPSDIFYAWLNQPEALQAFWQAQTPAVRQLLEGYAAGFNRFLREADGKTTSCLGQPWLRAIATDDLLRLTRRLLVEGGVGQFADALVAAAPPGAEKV
Acyl-homoserine lactone acylase PvdQ, sequence (Q9I194 217-762 limits assumed): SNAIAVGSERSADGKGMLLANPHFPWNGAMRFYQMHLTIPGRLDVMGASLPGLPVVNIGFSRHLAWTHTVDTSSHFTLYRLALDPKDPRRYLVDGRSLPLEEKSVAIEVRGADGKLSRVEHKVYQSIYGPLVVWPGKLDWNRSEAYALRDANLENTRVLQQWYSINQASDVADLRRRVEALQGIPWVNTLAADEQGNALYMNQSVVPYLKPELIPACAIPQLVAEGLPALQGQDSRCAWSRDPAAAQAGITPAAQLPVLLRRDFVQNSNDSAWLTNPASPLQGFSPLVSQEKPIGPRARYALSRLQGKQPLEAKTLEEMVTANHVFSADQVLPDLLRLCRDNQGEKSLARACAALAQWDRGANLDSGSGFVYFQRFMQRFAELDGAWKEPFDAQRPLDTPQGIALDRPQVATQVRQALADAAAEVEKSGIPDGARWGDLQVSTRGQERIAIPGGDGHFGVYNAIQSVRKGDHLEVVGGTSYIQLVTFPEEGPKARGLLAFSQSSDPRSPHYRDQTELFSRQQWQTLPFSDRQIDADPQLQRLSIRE

[14] = A Cell Based Secondary Assay To Explore Cytotoxicity of Compounds that Sensitize Mycobacterium Tuberculosis to Beta-Lactam Antibiotics.; type: functional
[15] = growth suppression of PTEN-null colon cells, dose response, cell-based, HCT116 PTEN knockout (AID 1047); type: functional;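 also: HCT116 colon tumor cells with PTEN knocked out; cells exposed to compound for 60 hours before readout; potency for loss of cell viability measured by luminescence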
[16] = growth suppression of beta-catenin-knockout colon cells, dose response, cell-based, HCT116, human colon tumor (AID 1045); type: functional;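 also: HCT116 colon tumor cells with beta catenin knocked out; cells exposed to compound for 60 hours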
[17] = target: T3, Leucine aminopeptidase (Plasmodium falciparum 3D7, UniProt Q8IL11); experiment: P. falciparum M17LAP inhibitors, primary screen, biochemical, fluorogenic H-Leu-NHMec substrate, 1536-well (AID 1619); type: functional
T3 sequence (Q8IL11 whole entry): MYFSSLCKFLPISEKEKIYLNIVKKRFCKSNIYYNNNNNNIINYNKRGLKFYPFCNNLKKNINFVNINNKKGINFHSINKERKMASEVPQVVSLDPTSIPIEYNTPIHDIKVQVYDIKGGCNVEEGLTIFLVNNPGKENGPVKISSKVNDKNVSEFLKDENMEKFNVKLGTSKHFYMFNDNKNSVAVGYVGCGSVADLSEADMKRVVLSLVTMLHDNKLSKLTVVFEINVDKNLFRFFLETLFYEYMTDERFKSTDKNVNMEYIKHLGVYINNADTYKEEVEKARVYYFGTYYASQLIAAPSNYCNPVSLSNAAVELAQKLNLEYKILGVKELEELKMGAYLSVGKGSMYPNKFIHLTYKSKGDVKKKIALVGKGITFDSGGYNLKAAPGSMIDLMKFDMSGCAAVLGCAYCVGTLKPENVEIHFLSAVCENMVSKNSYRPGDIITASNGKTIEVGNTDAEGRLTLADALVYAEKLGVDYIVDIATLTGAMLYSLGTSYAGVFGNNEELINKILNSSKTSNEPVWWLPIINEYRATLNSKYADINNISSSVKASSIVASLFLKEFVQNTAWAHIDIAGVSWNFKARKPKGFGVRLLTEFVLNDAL

[18] = target: T4, Aminopeptidase N (Plasmodium falciparum FcB1/Columbia, UniProt O96935); experiment: P. falciparum M1AAP inhibitors, biochemical, fluorogenic H-Leu-NHMec substrate, 1536-well (AID 1445); parameters: species or system Plasmodium falciparum 3D7, 3D7
T4 sequence (O96935 whole entry): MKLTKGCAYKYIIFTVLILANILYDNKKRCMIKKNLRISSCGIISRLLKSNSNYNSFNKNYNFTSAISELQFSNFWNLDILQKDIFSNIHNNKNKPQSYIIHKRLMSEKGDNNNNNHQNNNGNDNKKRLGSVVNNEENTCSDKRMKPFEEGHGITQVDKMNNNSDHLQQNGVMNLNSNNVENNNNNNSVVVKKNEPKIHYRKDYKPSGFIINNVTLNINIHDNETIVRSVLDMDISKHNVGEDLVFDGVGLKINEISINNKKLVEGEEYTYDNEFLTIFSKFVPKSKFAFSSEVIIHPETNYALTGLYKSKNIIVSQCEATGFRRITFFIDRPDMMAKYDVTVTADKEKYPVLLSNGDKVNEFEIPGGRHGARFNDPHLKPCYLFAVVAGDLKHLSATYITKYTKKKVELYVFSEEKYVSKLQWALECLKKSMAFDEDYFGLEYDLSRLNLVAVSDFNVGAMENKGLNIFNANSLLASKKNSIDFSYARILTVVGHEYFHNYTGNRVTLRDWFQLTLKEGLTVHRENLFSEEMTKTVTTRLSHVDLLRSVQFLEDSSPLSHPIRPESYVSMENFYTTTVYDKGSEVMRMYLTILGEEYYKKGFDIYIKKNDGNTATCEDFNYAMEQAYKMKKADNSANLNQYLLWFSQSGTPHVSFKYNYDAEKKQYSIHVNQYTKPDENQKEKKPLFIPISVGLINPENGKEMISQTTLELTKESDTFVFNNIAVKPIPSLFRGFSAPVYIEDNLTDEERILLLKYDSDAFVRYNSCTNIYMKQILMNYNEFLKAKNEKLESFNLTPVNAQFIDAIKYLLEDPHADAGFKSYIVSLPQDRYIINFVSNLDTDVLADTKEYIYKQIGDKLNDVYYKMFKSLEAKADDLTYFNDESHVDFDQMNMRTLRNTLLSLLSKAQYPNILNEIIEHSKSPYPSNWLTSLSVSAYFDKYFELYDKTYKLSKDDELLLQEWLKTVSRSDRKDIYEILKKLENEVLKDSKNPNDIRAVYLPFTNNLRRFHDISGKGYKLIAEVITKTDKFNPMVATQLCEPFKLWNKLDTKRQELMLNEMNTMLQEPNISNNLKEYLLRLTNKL

[19] = target: T5, Kappa-type opioid receptor (Homo sapiens, UniProt P41145); type: functional
T5 sequence (P41145 whole entry): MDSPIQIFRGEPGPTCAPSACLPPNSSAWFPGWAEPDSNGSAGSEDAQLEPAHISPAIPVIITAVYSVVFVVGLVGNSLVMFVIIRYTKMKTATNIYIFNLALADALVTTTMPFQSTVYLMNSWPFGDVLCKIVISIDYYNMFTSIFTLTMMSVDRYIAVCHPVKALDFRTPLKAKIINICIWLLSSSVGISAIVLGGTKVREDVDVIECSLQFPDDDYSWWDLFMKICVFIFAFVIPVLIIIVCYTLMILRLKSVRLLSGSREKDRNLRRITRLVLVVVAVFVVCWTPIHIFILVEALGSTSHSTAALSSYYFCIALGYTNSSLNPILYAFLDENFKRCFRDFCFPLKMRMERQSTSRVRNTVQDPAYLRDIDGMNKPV

[20] = target: Beta-galactosidase (Escherichia coli, UniProt Q8VNN2); type: functional
Beta-galactosidase, sequence (Q8VNN2 whole entry): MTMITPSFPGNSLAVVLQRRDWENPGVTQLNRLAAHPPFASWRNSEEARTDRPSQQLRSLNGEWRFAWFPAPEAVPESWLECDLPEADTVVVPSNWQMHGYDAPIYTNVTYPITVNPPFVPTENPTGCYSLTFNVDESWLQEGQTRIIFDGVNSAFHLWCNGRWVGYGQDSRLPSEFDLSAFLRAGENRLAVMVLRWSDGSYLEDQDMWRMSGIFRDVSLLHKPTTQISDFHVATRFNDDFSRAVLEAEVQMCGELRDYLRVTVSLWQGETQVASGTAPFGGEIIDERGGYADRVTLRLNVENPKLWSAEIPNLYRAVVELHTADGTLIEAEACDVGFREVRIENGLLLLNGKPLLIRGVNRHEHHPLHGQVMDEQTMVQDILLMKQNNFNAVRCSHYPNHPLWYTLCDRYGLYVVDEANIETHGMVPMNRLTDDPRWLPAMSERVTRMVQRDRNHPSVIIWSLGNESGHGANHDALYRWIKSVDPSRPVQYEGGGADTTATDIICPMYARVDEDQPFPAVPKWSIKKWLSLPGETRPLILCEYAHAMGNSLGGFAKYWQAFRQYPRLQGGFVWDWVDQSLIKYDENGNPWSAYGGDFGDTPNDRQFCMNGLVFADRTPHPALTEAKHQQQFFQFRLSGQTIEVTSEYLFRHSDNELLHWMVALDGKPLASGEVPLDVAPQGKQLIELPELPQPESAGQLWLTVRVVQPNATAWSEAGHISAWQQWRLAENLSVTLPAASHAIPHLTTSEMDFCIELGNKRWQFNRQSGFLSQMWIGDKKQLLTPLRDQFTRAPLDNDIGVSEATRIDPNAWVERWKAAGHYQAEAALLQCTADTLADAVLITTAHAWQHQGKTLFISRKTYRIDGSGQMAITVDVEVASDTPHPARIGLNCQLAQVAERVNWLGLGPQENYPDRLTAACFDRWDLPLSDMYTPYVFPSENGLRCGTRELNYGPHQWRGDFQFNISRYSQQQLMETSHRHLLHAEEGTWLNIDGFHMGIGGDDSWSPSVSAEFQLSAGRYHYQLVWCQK

[21] = target: T5, Kappa-type opioid receptor; type: functional; remark: listed apart in the source
[22] = target: T1, Luciferin 4-monooxygenase; experiment: Counter Screen for Luciferase-based Assay Positives. [Related pubchem assays: 620, 618, 411 ]
[23] = test system: HT-1080; experiment: cytotoxicity in HT1080 fibrosarcoma cells, cell-based, fluorescence readout (AID 620); type: functional; settings: Homo sapiens
[24] = target: T6, Neuropeptides B/W receptor type 1 (Homo sapiens, UniProt P48145); experiment: Fluorescence-based dose response cell-based high throughput screening assay to identify antagonists of the G-protein coupled receptor 7 (GPR7). [Related pubchem assays: 1952 (Screening assay (GPR7 antagonists).), 1880 (Summary AID.)]; type: functional
T6 sequence (P48145 whole entry): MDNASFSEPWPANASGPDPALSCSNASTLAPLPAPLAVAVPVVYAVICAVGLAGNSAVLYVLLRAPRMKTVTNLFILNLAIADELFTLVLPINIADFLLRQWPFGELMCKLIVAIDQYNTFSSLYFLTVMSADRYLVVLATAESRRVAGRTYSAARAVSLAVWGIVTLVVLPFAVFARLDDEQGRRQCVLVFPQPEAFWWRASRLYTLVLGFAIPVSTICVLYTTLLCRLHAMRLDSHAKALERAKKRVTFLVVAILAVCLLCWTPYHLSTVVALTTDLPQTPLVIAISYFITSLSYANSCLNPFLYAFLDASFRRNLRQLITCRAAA

[25] = target: Melanin-concentrating hormone receptor 1 (Homo sapiens, UniProt Q99705); experiment: Fluorescence-based counterscreen for antagonists of the G-protein coupled receptor 7 (GPR7): cell-based high throughput dose response assay to identify antagonists of the melanin-concentrating hormone receptor 1 (MCHR1).; type: functional
Melanin-concentrating hormone receptor 1, sequence (Q99705 whole entry): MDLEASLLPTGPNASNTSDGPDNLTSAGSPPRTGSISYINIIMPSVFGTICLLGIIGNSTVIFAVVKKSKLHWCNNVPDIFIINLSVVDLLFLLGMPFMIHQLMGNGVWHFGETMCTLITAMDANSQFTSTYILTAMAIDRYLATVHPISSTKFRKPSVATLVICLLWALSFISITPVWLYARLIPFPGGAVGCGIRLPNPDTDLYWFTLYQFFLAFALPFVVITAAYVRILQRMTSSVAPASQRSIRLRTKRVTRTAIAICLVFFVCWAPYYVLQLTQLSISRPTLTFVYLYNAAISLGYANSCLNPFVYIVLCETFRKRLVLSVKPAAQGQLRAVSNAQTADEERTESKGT

[26] = target: Intestinal-type alkaline phosphatase (Homo sapiens, UniProt P09923); experiment: Dose Response confirmation of uHTS hits from a small molecule inhibitors of human intestinal alkaline phosphatase via a luminescent assay. [Related pubchem assays (depositor defined):AID2544, AID2574]; type: functional
Intestinal-type alkaline phosphatase, sequence (P09923 whole entry): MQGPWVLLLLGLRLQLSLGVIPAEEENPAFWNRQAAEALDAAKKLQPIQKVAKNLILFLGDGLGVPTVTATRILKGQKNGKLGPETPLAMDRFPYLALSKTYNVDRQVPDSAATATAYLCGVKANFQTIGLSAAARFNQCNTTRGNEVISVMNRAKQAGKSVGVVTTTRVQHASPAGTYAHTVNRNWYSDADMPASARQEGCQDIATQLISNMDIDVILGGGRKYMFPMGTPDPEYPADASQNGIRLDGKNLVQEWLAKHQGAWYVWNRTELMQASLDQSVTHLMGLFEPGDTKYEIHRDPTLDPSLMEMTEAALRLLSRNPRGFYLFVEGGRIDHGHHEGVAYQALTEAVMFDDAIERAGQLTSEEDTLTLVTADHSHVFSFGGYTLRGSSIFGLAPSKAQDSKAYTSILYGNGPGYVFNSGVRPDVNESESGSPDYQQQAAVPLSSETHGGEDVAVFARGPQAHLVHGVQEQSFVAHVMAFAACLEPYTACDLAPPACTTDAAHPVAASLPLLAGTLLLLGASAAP

Structure (SMILES): CCN(CC)c1ccc(C2=NNC(=O)CC2C)cc1[N+](=O)[O-] (configuration not stated)
- EC50 [1]: < 0.1 µM (active)
- EC50 [2]: 0.05 µM (active)
- EC50 [3]: 0.194 µM (active)
- EC50 [4]: < 0.1 µM (active)
- EC50 [5]: > 112 µM (not active)
- EC50 [6]: 0.504 µM (active)
- EC50 [7]: 0.123 µM (active)

Structure (SMILES): CN(CC1COc2ccccc2O1)c1nc(-c2cccnc2)nc2ccccc12 (configuration not stated)
- EC50 [8]: 2.65 µM (active)
- IC50 [9]: 24.4 µM (active)

Structure (SMILES): O=c1cccc2n1CC1CC2CN(Cc2cccc(Cl)c2Cl)C1 (configuration not stated)
- CC50 [10]: 23.1 µM (active)
- EC50 [8]: > 50 µM (not active)

Structure (SMILES): CCn1nccc1C(=O)Nc1ccc(Cl)cn1
- IC50 [11]: > 100 µM (not active)
- IC50 [12]: > 100 µM (not active)

Structure (SMILES): N#CC(c1ccc(Cl)cc1)c1ncc(C(F)(F)F)cc1Cl (configuration not stated)
- AC50 [13]: 0.939 µM (active)

Structure (SMILES): COc1ccc(OC)c(C2CC(c3c(O)nc4ccc(Cl)cc4c3-c3ccccc3)=NN2S(C)(=O)=O)c1 (configuration not stated)
- CC50 [14]: > 40 µM (active)
- EC50 [15]: 9.08 µM (active)
- EC50 [16]: 11.3 µM (active)

Structure (SMILES): CCOc1cc(/C=C2\SC(=S)N(C(C(=O)O)c3ccccc3)C2=O)ccc1O (configuration not stated)
- IC50 [17]: 45.5 µM (active)
- IC50 [18]: 31.8 µM (active)
- IC50 [19]: 23.2 µM (inactive)
- EC50 [20]: 14.3 µM (active)
- IC50 [21]: > 32 µM

Structure (SMILES): Cc1cnc(NC(=O)C2COc3ccccc3O2)s1 (configuration not stated)
- EC50 [22]: 1.95 µM (active)
- EC50 [23]: > 50 µM (not active)

Structure (SMILES): O=C(c1cnccn1)N(Cc1cccs1)C1(C(=O)NC2CCCC2)CCCCC1
- IC50 [24]: > 43.8 µM (not active)
- IC50 [25]: > 43.8 µM (not active)

Structure (SMILES): CC1Cn2c(nnc2C23CC4CC(CC(C4)C2)C3)S1 (configuration not stated)
- IC50 [26]: > 100 µM (inactive)
